# Activity calls are given as the source filed them.
# What was measured:
# [1] = biological target: Eukaryotic translation initiation factor 4E (Mus musculus, UniProt P63073); assay: eIF4E–eIF4G protein interaction inhibitors, dose response, biochemical, TR-FRET (AID 855); assay type: functional;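 further: potency for disrupting eIF4E binding to eIF4GI seen as loss of FRET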
# Estrogen receptor = biological target: T1, Estrogen receptor (Homo sapiens, UniProt P03372);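 further: potency for inhibiting coactivator peptide recruitment to the receptor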
# T1 sequence (P03372 whole entry): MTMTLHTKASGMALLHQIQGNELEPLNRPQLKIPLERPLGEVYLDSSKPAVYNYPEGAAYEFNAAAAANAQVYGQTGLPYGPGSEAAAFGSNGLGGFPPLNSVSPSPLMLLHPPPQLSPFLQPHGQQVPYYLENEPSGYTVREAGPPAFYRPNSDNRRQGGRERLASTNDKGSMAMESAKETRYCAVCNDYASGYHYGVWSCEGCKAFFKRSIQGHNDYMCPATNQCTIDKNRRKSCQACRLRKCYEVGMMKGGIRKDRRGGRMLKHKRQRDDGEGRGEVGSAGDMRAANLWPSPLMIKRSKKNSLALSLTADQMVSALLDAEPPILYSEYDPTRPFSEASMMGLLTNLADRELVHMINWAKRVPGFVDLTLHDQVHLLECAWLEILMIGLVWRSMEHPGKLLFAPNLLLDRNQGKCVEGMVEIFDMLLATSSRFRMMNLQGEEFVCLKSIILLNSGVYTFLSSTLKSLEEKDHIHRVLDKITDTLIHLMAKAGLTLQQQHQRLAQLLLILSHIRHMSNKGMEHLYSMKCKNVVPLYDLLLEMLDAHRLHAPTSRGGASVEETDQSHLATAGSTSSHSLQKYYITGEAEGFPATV
# [2] = Luminescence Cell-Based Dose Confirmation HTS to Identify Activators of 5'UTR Stem-Loop Driven Alpha-Synuclein mRNA Translation in H4 Neuroglioblastoma Cells. [Related pubchem assays: 1829 (Project Summary), 1814 (Primary HTS)]; assay type: functional
# [3] = Luminescence Cell-Based Dose Response HTS to Identify Activators of Luciferase Translation or Activity in H4 […] Cells. [Related pubchem assays: 1829 (Project Summary), 1814 (Primary HTS)]; assay type: functional
# [4] = biological target: T2, Rac GTPase-activating protein 1 (Homo sapiens, UniProt Q9H0H5); assay: MgcRacGAP GTPase-activating activity inhibitors, confirmation, biochemical, ADP Hunter fluorescence, primary and confirmatory (AID 624330); assay type: functional
# T2 sequence (Q9H0H5 whole entry): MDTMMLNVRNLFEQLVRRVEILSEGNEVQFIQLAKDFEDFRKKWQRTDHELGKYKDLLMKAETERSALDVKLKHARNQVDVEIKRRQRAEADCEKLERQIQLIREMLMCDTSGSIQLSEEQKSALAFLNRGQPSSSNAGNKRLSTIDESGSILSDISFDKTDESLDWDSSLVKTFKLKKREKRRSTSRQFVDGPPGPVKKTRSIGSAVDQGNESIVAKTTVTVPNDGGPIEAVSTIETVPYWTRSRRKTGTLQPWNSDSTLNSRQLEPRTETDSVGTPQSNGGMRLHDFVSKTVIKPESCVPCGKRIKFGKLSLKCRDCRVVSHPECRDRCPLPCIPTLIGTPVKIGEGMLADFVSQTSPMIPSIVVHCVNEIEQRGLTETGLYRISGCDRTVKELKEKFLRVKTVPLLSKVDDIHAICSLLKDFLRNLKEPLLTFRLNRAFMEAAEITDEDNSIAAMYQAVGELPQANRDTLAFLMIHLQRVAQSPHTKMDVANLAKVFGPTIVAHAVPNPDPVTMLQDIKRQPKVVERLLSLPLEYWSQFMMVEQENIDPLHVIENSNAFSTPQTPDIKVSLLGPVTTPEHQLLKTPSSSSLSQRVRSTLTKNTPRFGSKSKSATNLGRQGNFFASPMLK
# H4 = assay: Luminescence Cell-Based Dose Response HTS to Identify Activators of 5'UTR Stem-Loop Driven Prion Protein mRNA Translation in H4 Neuroglioblastoma Cells. [Related pubchem assays: 1829 (Project Summary), 1814 (Primary HTS)]; assay type: functional; details: Homo sapiens
# [5] = biological target: T3, Type-1 angiotensin II receptor (Homo sapiens, UniProt P30556); assay: AT1 receptor antagonists, dose response, selectivity assay for APJ receptor antagonist project, cell-based, uHTS hits (AID 463214); assay type: functional;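 further: antagonist potency against angiotensin II stimulated AT1 response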
# T3 sequence (P30556 whole entry): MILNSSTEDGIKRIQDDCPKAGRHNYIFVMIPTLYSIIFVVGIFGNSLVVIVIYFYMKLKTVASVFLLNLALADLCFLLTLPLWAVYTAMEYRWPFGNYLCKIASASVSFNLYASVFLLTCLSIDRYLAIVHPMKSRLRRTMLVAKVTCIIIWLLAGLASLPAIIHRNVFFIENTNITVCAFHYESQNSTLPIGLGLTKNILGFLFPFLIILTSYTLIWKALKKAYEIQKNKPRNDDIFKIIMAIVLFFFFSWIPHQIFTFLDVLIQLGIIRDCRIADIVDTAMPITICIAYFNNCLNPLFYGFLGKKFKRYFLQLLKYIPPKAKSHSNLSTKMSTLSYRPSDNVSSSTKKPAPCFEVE
# Beta-galactosidase = Beta-galactosidase (Escherichia coli, UniProt Q8VNN2); assay: PubChem AID 485352; assay type: functional
# [6] = Luminescence Cell-Based Dose Retest to Confirm Inhibitors of Cancer Stem Cells. [Related pubchem assays (depositor defined):AID2717, AID2721]; assay type: functional; details: Homo sapiens
# [7] = biological target: Glyceraldehyde-3-phosphate dehydrogenase (Homo sapiens, UniProt P04406)
# Chain of Glyceraldehyde-3-phosphate dehydrogenase (P04406 whole entry): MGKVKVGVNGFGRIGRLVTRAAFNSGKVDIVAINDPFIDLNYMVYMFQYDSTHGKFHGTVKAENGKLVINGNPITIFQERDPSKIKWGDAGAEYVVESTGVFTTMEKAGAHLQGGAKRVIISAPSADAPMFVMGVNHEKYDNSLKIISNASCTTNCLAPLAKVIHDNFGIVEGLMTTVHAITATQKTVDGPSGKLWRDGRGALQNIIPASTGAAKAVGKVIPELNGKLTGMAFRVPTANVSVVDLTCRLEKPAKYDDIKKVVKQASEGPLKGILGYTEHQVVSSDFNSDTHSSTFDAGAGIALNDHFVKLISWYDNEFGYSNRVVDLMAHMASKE
# [8] = biological target: T4, Alkaline phosphatase, tissue-nonspecific isozyme (Homo sapiens, UniProt P05186); assay: human TNAP enzyme inhibitors, SAR follow-up, biochemical, luminescent, dose response (AID 1056)
# T4 sequence (P05186 whole entry): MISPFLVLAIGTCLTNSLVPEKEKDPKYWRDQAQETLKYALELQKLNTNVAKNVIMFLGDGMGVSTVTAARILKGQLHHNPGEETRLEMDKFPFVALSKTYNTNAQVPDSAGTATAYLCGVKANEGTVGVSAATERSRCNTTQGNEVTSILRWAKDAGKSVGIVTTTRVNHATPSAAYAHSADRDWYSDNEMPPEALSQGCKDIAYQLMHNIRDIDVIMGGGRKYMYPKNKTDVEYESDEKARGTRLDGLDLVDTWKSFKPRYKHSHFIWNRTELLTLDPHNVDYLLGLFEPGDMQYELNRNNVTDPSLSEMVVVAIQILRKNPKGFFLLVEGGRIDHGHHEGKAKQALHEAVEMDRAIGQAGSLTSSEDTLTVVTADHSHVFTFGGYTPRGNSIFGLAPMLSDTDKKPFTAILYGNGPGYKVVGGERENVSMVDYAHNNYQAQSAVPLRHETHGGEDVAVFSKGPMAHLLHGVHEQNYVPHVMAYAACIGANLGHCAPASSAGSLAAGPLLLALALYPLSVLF
# [9] = biological target: Alkaline phosphatase, placental type (Homo sapiens, UniProt P05187); assay: PLAP enzyme inhibitors, confirmation, biochemical, luminescence (AID 1512); assay type: functional
# Chain of Alkaline phosphatase, placental type (P05187 whole entry): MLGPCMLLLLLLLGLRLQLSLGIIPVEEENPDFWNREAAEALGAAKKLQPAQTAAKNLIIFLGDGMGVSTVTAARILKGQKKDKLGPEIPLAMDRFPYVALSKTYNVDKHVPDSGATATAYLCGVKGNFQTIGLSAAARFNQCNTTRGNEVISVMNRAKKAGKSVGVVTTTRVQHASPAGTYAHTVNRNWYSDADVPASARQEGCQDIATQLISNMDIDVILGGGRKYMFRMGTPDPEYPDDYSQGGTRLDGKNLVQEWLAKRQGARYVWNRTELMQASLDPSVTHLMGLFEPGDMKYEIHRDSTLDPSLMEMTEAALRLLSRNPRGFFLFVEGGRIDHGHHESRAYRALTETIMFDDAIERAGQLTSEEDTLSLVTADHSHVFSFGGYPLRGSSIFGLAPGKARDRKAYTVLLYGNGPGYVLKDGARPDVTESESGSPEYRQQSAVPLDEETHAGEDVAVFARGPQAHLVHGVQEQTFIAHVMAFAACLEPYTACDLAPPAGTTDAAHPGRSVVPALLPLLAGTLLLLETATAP
# [10] = biological target: Peroxisome proliferator-activated receptor gamma/Nuclear receptor coactivator 2 (Homo sapiens, UniProt P37231); assay: (§1) TR-FRET dose response biochemical High Throughput Screening assay for agonists of the steroid receptor coactivator 2 (SRC-2) recruitment by the peroxisome proliferator-activated receptor gamma (PPAR gamma): non-selective agonists. [Related pubchem assays: 1297, 1032 ]; assay type: functional
# Chain of Peroxisome proliferator-activated receptor gamma/Nuclear receptor coactivator 2 (P37231 whole entry): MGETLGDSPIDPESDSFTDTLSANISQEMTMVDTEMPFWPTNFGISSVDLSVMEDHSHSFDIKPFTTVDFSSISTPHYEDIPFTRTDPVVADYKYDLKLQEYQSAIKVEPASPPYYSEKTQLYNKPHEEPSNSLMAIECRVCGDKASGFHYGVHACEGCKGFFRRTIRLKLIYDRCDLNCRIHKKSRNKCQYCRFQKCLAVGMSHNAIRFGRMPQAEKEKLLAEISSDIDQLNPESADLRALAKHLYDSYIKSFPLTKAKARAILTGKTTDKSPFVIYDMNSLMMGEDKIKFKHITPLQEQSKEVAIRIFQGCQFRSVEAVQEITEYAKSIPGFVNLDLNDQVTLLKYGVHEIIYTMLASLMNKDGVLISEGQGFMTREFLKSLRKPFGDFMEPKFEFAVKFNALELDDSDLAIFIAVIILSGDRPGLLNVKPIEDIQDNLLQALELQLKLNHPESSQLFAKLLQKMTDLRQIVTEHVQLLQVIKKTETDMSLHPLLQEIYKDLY
# Chain of Peroxisome proliferator-activated receptor gamma/Nuclear receptor coactivator 2 (Q15596 whole entry, further chain): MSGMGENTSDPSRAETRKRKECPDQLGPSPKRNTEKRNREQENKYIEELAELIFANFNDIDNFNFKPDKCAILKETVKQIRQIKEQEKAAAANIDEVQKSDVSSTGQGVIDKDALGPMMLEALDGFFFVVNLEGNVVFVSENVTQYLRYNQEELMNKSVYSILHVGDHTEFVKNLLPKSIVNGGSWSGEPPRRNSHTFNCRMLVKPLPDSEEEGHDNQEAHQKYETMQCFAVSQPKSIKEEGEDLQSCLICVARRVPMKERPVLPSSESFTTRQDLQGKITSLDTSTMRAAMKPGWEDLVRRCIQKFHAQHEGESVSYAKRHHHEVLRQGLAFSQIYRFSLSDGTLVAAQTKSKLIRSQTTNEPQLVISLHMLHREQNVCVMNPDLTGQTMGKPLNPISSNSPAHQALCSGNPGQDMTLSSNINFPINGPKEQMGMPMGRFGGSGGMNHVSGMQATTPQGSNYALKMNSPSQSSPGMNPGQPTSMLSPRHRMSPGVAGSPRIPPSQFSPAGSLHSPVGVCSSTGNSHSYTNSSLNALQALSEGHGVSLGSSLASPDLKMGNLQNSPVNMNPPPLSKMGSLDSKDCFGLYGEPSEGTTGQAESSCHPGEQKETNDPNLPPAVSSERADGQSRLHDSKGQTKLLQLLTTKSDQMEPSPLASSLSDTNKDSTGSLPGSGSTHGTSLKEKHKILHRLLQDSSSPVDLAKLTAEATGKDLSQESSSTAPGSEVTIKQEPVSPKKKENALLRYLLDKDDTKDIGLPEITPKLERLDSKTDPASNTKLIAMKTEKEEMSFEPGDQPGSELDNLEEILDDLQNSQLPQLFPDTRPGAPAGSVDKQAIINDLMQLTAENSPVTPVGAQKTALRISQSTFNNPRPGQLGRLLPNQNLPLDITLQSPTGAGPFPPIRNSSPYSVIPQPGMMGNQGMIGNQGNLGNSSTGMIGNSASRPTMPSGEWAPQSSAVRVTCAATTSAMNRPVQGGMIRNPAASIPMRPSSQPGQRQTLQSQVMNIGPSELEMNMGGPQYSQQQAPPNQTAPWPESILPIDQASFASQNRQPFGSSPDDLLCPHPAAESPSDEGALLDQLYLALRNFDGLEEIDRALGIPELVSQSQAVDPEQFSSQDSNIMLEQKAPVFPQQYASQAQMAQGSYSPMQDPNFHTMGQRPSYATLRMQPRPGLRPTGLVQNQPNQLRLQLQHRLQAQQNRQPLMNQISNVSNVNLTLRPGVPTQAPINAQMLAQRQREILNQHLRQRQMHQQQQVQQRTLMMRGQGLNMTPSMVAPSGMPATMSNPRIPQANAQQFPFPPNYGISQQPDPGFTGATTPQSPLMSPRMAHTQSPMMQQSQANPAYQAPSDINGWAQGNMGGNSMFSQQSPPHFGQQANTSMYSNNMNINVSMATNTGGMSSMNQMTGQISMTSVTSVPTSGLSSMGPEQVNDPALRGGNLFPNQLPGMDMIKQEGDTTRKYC
# [11] = biological target: Peroxisome proliferator-activated receptor gamma/Nuclear receptor coactivator 1 (Homo sapiens, UniProt P37231); assay: as §1, with “1 (SRC-1)” for “2 (SRC-2)”, “assays (depositor defined):AID1300, AID1808, AID504735, AID631]” for “assays: 1297, 1032 ]”; assay type: protein assay
# Chain of Peroxisome proliferator-activated receptor gamma/Nuclear receptor coactivator 1 (P37231 whole entry): as the sequence (P37231 whole entry) above
# Chain of Peroxisome proliferator-activated receptor gamma/Nuclear receptor coactivator 1 (Q15788 whole entry, further chain): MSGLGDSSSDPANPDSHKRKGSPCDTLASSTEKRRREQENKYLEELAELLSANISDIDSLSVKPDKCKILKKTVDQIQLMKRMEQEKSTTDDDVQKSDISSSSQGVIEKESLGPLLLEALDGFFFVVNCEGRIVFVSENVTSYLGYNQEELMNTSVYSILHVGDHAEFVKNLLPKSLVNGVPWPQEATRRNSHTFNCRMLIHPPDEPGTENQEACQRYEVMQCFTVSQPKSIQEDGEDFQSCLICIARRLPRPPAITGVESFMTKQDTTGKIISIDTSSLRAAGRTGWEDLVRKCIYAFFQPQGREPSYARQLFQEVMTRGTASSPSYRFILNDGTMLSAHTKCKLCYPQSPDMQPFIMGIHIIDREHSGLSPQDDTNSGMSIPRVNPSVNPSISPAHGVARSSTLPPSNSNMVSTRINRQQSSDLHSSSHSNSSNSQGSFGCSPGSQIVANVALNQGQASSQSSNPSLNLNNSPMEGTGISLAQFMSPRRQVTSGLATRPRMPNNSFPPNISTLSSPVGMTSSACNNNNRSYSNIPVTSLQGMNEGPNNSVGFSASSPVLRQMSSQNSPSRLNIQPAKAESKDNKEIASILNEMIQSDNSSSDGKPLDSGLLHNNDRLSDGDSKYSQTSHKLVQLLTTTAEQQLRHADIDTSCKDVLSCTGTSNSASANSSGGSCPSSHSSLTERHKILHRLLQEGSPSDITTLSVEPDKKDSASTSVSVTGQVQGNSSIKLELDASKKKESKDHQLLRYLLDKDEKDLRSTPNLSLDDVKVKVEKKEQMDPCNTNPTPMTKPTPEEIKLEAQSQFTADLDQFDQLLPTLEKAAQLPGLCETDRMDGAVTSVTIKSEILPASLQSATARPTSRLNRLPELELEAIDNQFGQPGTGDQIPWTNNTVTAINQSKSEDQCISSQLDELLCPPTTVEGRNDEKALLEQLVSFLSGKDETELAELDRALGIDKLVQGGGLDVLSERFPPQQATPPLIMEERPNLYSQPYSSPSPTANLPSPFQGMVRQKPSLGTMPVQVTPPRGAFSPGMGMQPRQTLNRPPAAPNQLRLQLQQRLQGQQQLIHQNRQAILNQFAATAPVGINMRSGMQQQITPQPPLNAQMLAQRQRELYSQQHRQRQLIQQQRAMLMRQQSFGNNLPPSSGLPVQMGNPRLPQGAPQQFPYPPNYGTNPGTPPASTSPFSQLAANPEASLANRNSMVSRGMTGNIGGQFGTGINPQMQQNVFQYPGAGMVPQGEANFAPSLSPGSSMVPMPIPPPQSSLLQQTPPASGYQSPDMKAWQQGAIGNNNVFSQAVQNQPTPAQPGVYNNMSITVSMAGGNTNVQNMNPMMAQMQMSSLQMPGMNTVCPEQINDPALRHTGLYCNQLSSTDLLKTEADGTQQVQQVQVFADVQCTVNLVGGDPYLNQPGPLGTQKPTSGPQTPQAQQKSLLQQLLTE
# [12] = biological target: Peroxisome proliferator-activated receptor gamma/Nuclear receptor coactivator 3 (Homo sapiens, UniProt P37231); assay: as §1, with “3 (SRC-3)” for “2 (SRC-2)”, “1301 (Confirmation screen.), 1048 (Primary screen.)]” for “1297, 1032 ]”; assay type: functional
# INS1 = assay: beta cell apoptosis inhibitors, cytokine rescue, dose response, luminescence, retest (AID 449756); assay type: functional, cell-based; details: Rattus norvegicus;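 further: cell death triggered by IL-1 beta plus TNF-alpha plus IFN-gamma mixture; protective hits raise ATP signal compared with cytokine alone wells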
# Chain of Eukaryotic translation initiation factor 4E (P63073 whole entry): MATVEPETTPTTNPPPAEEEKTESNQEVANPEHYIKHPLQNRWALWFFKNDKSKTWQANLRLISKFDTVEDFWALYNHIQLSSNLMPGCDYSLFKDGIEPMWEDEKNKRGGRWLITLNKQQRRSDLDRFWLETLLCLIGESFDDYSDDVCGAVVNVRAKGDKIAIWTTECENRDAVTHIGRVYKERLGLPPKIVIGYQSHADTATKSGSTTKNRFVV
smiles,measurement,setting,value
COC(=O)COc1ccc(S(=O)(=O)Nc2ccc3c(c2)OCO3)cc1,IC50,[1],> 64 µM (inactive)
same,IC50,Estrogen receptor,> 50 µM (not active)
CN(C)c1ccc2c(c1)N=C(c1ccco1)OP2(=S)N1CCOCC1 (stereo not drawn),EC50,[2],15.7 µM (active)
same,EC50,[3],17.9 µM (active)
same,IC50,[1],> 64 µM (inactive)
same,IC50,[4],179 µM (active)
same,EC50,H4,49.6 µM (active)
O=C(NNc1ccc(-c2csnn2)cc1)c1cc(Cl)cc(Cl)c1,IC50,[5],2.43 µM (active)
same,EC50,Beta-galactosidase,> 40 µM (inactive)
same,AC50,[6],2.15 µM (active)
O=S(=O)(Nc1cccnc1)c1cc(Cl)ccc1Cl,IC50,[7],> 100 µM (not active)
same,IC50,[8],> 100 µM (inactive)
O=C1c2cccc(F)c2C(=O)N1c1nnc(Cc2ccccc2)[nH]1,IC50,[7],> 100 µM (not active)
same,IC50,[9],> 100 µM (inactive)
same,IC50,[8],0.353 µM (active)
CCc1c(C(=O)NNC(=S)NCC2CCCO2)csc1C (stereo not drawn),IC50,[9],> 100 µM (inactive)
CC1(C)CC(=O)c2c(n[nH]c2-c2cccnc2)C1,IC50,[7],> 100 µM (not active)
same,IC50,[9],> 100 µM (inactive)
same,IC50,[8],13.3 µM (active)
O=C(CSc1ncnc2c1oc1ccccc12)NC1CCCCC1,EC50,[10],14.4 µM (not active)
same,EC50,[11],9.85 µM (active)
same,EC50,[12],> 79.4 µM (not active)
COc1ccc(CNC(=O)CSc2nc(-c3ccccc3)cc(-c3cccs3)c2C#N)cc1,EC50,[10],22.2 µM (not active)
same,EC50,[11],22.9 µM (inactive)
same,EC50,[12],> 79.4 µM (not active)
O=C(O)c1ccc2c(c1)C(=O)N(c1nc(-c3cccnc3)n[nH]1)C2=O,IC50,[7],> 100 µM (not active)
same,IC50,[8],> 100 µM (inactive)
CCOC(=O)c1sc2nc(C)nc(S)c2c1C,EC50,[10],37.3 µM (not active)
same,EC50,[11],162 µM (inactive)
same,EC50,[12],> 79.4 µM (not active)
COc1ccc(CC(=O)OCC(=O)c2ccc(S(=O)(=O)N3CCCCC3)cc2)cc1,IC50,[5],20 µM (not active)
same,EC50,Beta-galactosidase,> 40 µM (inactive)
Nc1nc(COc2ccccc2)n(-c2ccccc2)n1,IC50,[7],> 100 µM (not active)
same,IC50,[9],> 100 µM (inactive)
same,IC50,[8],> 100 µM (inactive)
COc1ccc2c(c1)C(=O)[C@H](O)[C@@H](c1ccc(OC)c(Br)c1)O2,AC50,INS1,3.71 µM (active)
same,IC50,[5],12.1 µM (active)
same,EC50,Beta-galactosidase,> 40 µM (inactive)
same,AC50,[6],7.62 µM (active)
CCNC(=S)NNC(=O)c1cc(C2CC2)nc2ccccc12,IC50,[9],> 100 µM (inactive)
Cc1ccc(-n2c(S)nnc2-c2cccc(C)c2)cc1,EC50,[10],40.1 µM (not active)
same,EC50,[11],70.8 µM (inactive)
same,EC50,[12],> 79.4 µM (not active)
O=C1CC(Sc2nnc(-c3ccccc3)o2)C(=O)N1c1ccccc1 (stereo not drawn),EC50,[10],89.2 µM (not active)
same,EC50,[11],> 79.4 µM (inactive)
same,EC50,[12],> 79.4 µM (not active)
O=C(CSc1nnc(-c2ccccc2)[nH]1)c1ccc(O)cc1O,IC50,[9],> 100 µM (inactive)
same,IC50,[8],3.71 µM (active)

# From ChEMBL document CHEMBL1201862, “PubChem BioAssay data set” (2004)
